Measurements: ChEMBL document CHEMBL3046019, “Prenylated xanthones: antiproliferative effects and enhancement of the growth inhibitory action of 4-hydroxytamoxifen in estrogen receptor-positive breast cancer cell line” (2012)
Calls of active or inactive are those of the source. The rule behind the calls is not given here.

What was measured:
NCI-H460 = experiment: Growth inhibition of Homo sapiens (human) NCI-H460 cells after 48 hr by [3H]-thymidine incorporation assay; type: functional
MDA-MB-231 [1] = experiment: Growth inhibition of estrogen receptor negative Homo sapiens (human) MDA-MB-231 cells after 48 hr by [3H]-thymidine incorporation assay; type: functional
MCF7 [2] = experiment: Growth inhibition of estrogen receptor positive Homo sapiens (human) MCF7 cells after 48 hr by [3H]-thymidine incorporation assay; type: functional
MCF7 [3] = experiment: Antiproliferative activity against estrogen receptor positive Homo sapiens (human) MCF7 cells in steroid free medium after 48 hr by SRB assay; type: functional, cell-based
MCF7 [4] = experiment: Antiproliferative activity against estrogen receptor positive Homo sapiens (human) MCF7 cells in complete medium after 48 hr by SRB assay; type: functional, cell-based
MDA-MB-231 [5] = experiment: Antiproliferative activity against estrogen receptor negative Homo sapiens (human) MDA-MB-231 cells after 48 hr by SRB assay; type: functional, cell-based
MCF7 [6] = experiment: Antiproliferative activity against estrogen receptor positive Homo sapiens (human) MCF7 cells after 48 hr by SRB assay; type: functional, cell-based
MDA-MB-231 [7] = experiment: Antiproliferative activity against estrogen receptor negative Homo sapiens (human) MDA-MB-231 cells at 0.05 uM after 48 hr by SRB assay; type: functional, cell-based
MCF7 [8] = experiment: Antiproliferative activity against estrogen receptor positive Homo sapiens (human) MCF7 cells at 0.05 uM after 48 hr by SRB assay; type: functional, cell-based
MCF7 [9] = experiment: Antiproliferative activity against estrogen receptor positive Homo sapiens (human) MCF7 cells in steroid free medium after 48 hr by SRB assay in presence of ER antagonist 4-OHT; type: functional, cell-based

| GI50 (NCI-H460) | GI50 (MDA-MB-231 [1]) | GI50 (MCF7 [2]) | Compound | Activity (MCF7 [3]) | Activity (MCF7 [4]) | Activity (MDA-MB-231 [5]) | Activity (MCF7 [6]) | Activity (MDA-MB-231 [7]) | Activity (MCF7 [8]) | Activity (MCF7 [9]) |
| --- | --- | --- | --- | --- | --- | --- | --- | --- | --- | --- |
| 30.7 µM | 39 µM | 21.8 µM | CC(C)=CCOc1ccc2c(=O)c3ccccc3oc2c1OCC=C(C)C |  |  |  |  |  |  |  |
| 20.4 µM | 29.1 µM | 14.2 µM | CC(C)=CCOc1ccc2c(=O)c3ccccc3oc2c1O | Dose-dependent effect | Dose-dependent effect | Dose-dependent effect | Dose-dependent effect | Active | Active |  |
| 22 µM | 29 µM | 5.3 µM | CC1(C)CCc2cc3c(=O)c4ccccc4oc3c(O)c2O1 [DIHYDRO-12-HYDROXY-2,2-DIMETHYL-2H,6H-PYRANO[3,2-B]XANTHEN-6-ONE] | Dose-dependent effect | Dose-dependent effect | Dose-dependent effect | Dose-dependent effect | Active | Active | Active |
